Structures can show the parent of a compound that is named as a salt. Where two headings read alike, the source gives them in different places. Bridge positions count the residues as written; N and C are the ends. Square brackets hold non-standard residues; d marks the D form. Peptide text beside a SMILES is read from it. * marks the point of attachment. Ileψ(thiazoline)Cys = CC[C@H](C)[C@H](N)C1=N[C@H](C(=O)*)CS1; dOrn = NCCC[C@@H](N)C(=O)O
Experiments:
[1] = system: stationary phase B. burgdorferi; assay: SYBR Green I/PI viability assay (drug library screen, plate reader); conditions: for viability at 50 µM: Borreliella burgdorferi, 168 h; for Residual viable cells (SYBR Green/PI): Table 1; for activity against stationary phase B. burgdorferi (in words): screen at 50 μM
Method: (§1) Borrelia burgdorferi strain B31 (ATCC35210) was received from the […] (Manassas, Va., USA) and was grown in BSK-H medium (HiMedia Laboratories, Mumbai, India) and 6% rabbit serum (Sigma Aldrich, St. Louis, Mo., USA). The culture was filtered and sterilized using a […] and incubated in capped sterile 50 mL conical tubes (BD Biosciences, CA, USA) at 33° C. for 7 days without antibiotics until the culture reached stationary phase.
(§2) The cultures were examined using a Nikon Eclipse E800 microscope with differential interference contrast and epifluorescent illumination. The pictures were captured using a SPOT slider color camera. A SYBR Green I/PI assay was used to assess the viability of the bacterial sample using the ratio of live to dead B. burgdorferi (measured with green and red fluorescence, respectively) as measured by a plate reader.
(§3) Briefly, prediluted drug stock (10 μL) was added to 7 day old stationary phase B. burgdorferi culture (90 μL) to achieve a 50 μM final drug concentration per well. The plates were then incubated at 33° C. for 7 days at which point the SYBR/PI rapid viability assay was performed in a fluorescence plate reader to obtain the green-red fluorescence ratio.

[2] = system: stationary phase B. burgdorferi; assay: Residual viable B. burgdorferi by epifluorescence microscope counting after drug exposure; conditions: for viability at 50 µM: Borreliella burgdorferi, 168 h, read-out: Residual viable cells (Microscopy)
Method: as §1, §2, §3

[3] = read-out: Residual viable cells (SYBR Green/PI), Table 1, drugs 50 μM, 7 day old stationary phase cells treated for 7 days
[4] = read-out: Residual viable cells (SYBR/PI), Table 3, drugs 50 μM, 7-day old stationary phase cells treated for 7 days
[5] = drugs 50 μM, 7 day old stationary phase cells treated for 7 days
[6] = Table 3, drugs 50 μM, 7-day old stationary phase cells treated for 7 days
[7] = Table 1, drugs 50 μM, 7 day old stationary phase cells treated for 7 days
[8] = read-out: Residual viable cells (SYBR Green/PI)
[9] = read-out: Residual viable cells (SYBR/PI)

Molecule | viability at 50 µM [1, 3] | viability at 50 µM [1, 4] | viability at 50 µM [2] | further results
CC[C@H](C)[C@H](N)C1=N[C@H](C(=O)N[C@@H](CC(C)C)C(=O)N[C@H](CCC(=O)O)C(=O)N[C@H](C(=O)N[C@H]2CCCCNC(=O)[C@H](CC(N)=O)NC(=O)[C@@H](CC(=O)O)NC(=O)[C@H](Cc3cnc[nH]3)NC(=O)[C@@H](Cc3ccccc3)NC(=O)[C@H]([C@@H](C)CC)NC(=O)[C@@H](CCCN)NC2=O)[C@@H](C)CC)CS1 [Bacitracin, Bacitracin zinc salt] ({Ileψ(thiazoline)Cys}-L[dE]IK[dOrn]I[dF]H[dD]N; lactam 4-C) | 47% | 47% | 60% | 
CO/N=C(\C(=O)N[C@@H]1C(=O)N2C(C(=O)O)=C(COC(N)=O)CS[C@H]12)c1ccco1 [Cefuroxime] | 43% |  | 49% | 
Potassium antimonyl tartrate trihydrate [Tartar emetic] |  |  |  | Residual viable cells (SYBR Green/PI) [1, 5]: 42%; Residual viable cells (SYBR/PI) [1, 6]: 42%; Residual viable cells (Microscopy) [2, 7]: 45%; Residual viable cells (Microscopy) [2, 6]: 45%
c1ccc2c(c1)Nc1ccccc1S2 [Phenothiazine] |  |  | 53% | viability at 50 µM [1, 8]: 54%; viability at 50 µM [1, 9]: 54%
Cc1nc(NS(=O)(=O)c2ccc(N)cc2)oc1C [Sulfamoxole] | 57% | 57% | 55% | 
COc1ccc(C[C@H](N)C(=O)N[C@H]2[C@@H](O)[C@H](n3cnc4c(N(C)C)ncnc43)O[C@@H]2CO)cc1 [Puromycin] | 65% | 65% | 48% | 
Penimepicycline |  |  |  | Residual viable cells (Microscopy) [2]: 60%
CN1CCCN=C1/C=C/c1cccc(O)c1 [Oxantel] | 44% | 44% | 63% | 
Cc1cc(-n2c(=O)[nH]c(=O)n(C)c2=O)ccc1Oc1ccc(SC(F)(F)F)cc1 [Toltrazuril] | 43% | 43% | 60% | 
O=C(O)c1cn(-c2ccc(F)cc2)c2cc(N3CCNCC3)c(F)cc2c1=O [Sarafloxacin, Sarafloxacin HCl] | 47% | 47% | 50% | 
C[C@@H]1CC[C@H]2[C@@H](C)C(=O)O[C@@H]3O[C@@]4(C)CC[C@@H]1[C@]32OO4 [Artemesinin] | 49% | 49% | 45% | activity against stationary phase B. burgdorferi (in words) ([1]; 7 days): good activity
CC[C@H]1OC(=O)[C@H](C)[C@@H](O[C@H]2C[C@@](C)(OC)[C@@H](O)[C@H](C)O2)[C@H](C)[C@@H](O[C@@H]2O[C@H](C)C[C@H](N(C)C)[C@H]2O)[C@](C)(O)C[C@@H](C)/C(=N\OCOCCOC)[C@H](C)[C@@H](O)[C@]1(C)O [Roxithromycin] | 62% | 62% | 65% | 
Mepartricin |  |  |  | Residual viable cells (SYBR Green/PI) [1, 5]: 43%; Residual viable cells (SYBR/PI) [1, 6]: 43%; activity against stationary phase B. burgdorferi (in words) ([1]; 7 days): reasonable activity; Residual viable cells (Microscopy) [2, 7]: 60%
C=C(NC(=O)C(=C)NC(=O)c1csc(C2=N[C@@H]3c4csc(n4)[C@H]4NC(=O)c5csc(n5)[C@H]([C@](C)(O)[C@@H](C)O)NC(=O)[C@H]5CSC(=N5)/C(=C/C)NC(=O)[C@H]([C@@H](C)O)NC(=O)c5csc(n5)[C@]3(CC2)NC(=O)[C@H](C)NC(=O)C(=C)NC(=O)[C@H](C)NC(=O)[C@H]([C@@H](C)CC)N[C@@H]2C=Cc3c([C@H](C)O)cc(nc3[C@H]2O)C(=O)O[C@@H]4C)n1)C(N)=O [Thiostrepton] |  |  | 66% | viability at 50 µM [1, 8]: 43%; viability at 50 µM [1, 9]: 43%
C[C@H]1c2cccc(O)c2C(=O)C2=C(O)[C@]3(O)C(=O)C(C(N)=O)=C(O)[C@@H](N(C)C)[C@@H]3[C@@H](O)[C@@H]21 [Doxycycline] | 67% | 67% | 75% | 
CC1(C)S[C@@H]2[C@H](NC(=O)[C@H](N)c3ccc(O)cc3)C(=O)N2[C@H]1C(=O)O [Amoxicillin] | 76% | 76% | 76% | 
CC(=O)N[C@H]1[C@H]([C@H](O)[C@H](O)CO)OC(C(=O)O)=C[C@@H]1N=C(N)N [Zanamivir] | 49% | 49% | 60% | activity against stationary phase B. burgdorferi (in words) ([1]; 7 days): good activity
CCc1nc(N)nc(N)c1-c1ccc(Cl)cc1 [Pyrimethamine] | 45% | 45% | 55% | 
CN[C@@H]1C[C@@H](c2ccc(Cl)c(Cl)c2)c2ccccc21.Cl [Indatraline, Indatraline hydrochloride] |  |  |  | Residual viable cells (SYBR Green/PI) [1, 5]: 51%; Residual viable cells (SYBR/PI) [1, 6]: 51%; activity against stationary phase B. burgdorferi (in words) ([1]; 7 days): high activity; Residual viable cells (Microscopy) [2, 7]: 43%; Residual viable cells (Microscopy) [2, 6]: 43%
ClC(Cl)=C(Cl)Cl [Tetrachloroethylene] |  |  | 53% | viability at 50 µM [1, 9]: 36%
C[C@]1(Cn2ccnn2)[C@H](C(=O)O)N2C(=O)C[C@H]2S1(=O)=O [Tazobactam] | 54% | 54% | 56% | 
NS(=O)(=O)c1ccc(C(=O)O)cc1 [Carzenide (4-Carboxybenzenesulfonamide), 4-Carboxybenzenesulfonamide] |  | 59% |  | 
Cc1ccnc2c1NC(=O)c1cccnc1N2C1CC1 [Nevirapine] | 51% | 51% |  | activity against stationary phase B. burgdorferi (in words) ([1]; 7 days): good activity
CS(=O)(=O)c1ccc([C@@H](O)[C@@H](CO)NC(=O)C(Cl)Cl)cc1 [Thiamphenicol] |  | 57% |  | 

Molecule | viability at 50 µM [1, 3] | viability at 50 µM [1, 4] | viability at 50 µM [2] | further results
COC(=O)Nc1nc2ccc([S+]([O-])c3ccccc3)cc2[nH]1 (centres unmarked) [Oxfendazole] | 54% | 54% |  | 
S=C=Nc1ccc(N=C=S)cc1 [Bitoscanate] |  |  |  | viability at 50 µM [1, 8]: 46%; viability at 50 µM [1, 9]: 46%
CCCCCCCCCCCCCCCCCCCCCCO [Docosanol] |  | 55% |  | 
Cc1cc(C(C#N)c2ccc(Cl)cc2)c(Cl)cc1NC(=O)c1cc(I)cc(I)c1O (centres unmarked) [Closantel] |  | 56% |  | 
O=c1[nH]c(=O)n([C@H]2C[C@H](O)[C@@H](CO)O2)cc1C(F)(F)F [Trifluridine] |  | 55% |  | 
O=c1[nH]cnc2c1ncn2[C@H]1CC[C@@H](CO)O1 [Didanosine, 2′-3′-dideoxyinosine] | 61% | 61% |  | 
Clc1ccccc1C(c1ccccc1)(c1ccccc1)n1ccnc1 [Clotrimazole] |  | 68% |  | 
NC1CCN(c2c(F)cc3c(=O)c(C(=O)O)cn(C4CC4)c3c2Cl)C1 (centres unmarked) [Clinafloxacin] |  | 60% |  | 
CC1(C)S[C@@H]2[C@H](NC(=O)[C@H](N)c3ccccc3)C(=O)N2[C@H]1C(=O)O [Ampicillin] |  | 64% |  | 
CCCc1cc(C(N)=S)ccn1 [Protionamide] |  | 63% |  | 
CCCCCl [Butyl chloride (1-Chlorobutane), 1-Chlorobutane] |  |  |  | viability at 50 µM [1, 9]: 41%; activity against stationary phase B. burgdorferi (in words) ([1]; 7 days): very high activities
N#CC(c1ccc(Cl)cc1)c1c(Cl)cc(-n2ncc(=O)[nH]c2=O)cc1Cl (centres unmarked) [Diclazuril] |  | 63% |  | 
CCCOc1ccc2nc(NC(=O)OC)[nH]c2c1 [Oxibendazole] | 51% | 51% |  | 
CCOc1ccc2nc3cc(N)ccc3c(N)c2c1 [Ethacridine lactate] | 48% | 48% |  | 
Clc1ccc(CO/N=C(\Cn2ccnc2)c2ccc(Cl)cc2Cl)c(Cl)c1 [Oxiconazole nitrate] | 62% | 62% |  | 
CO[C@H]1/C=C/O[C@@]2(C)Oc3c(C)c([O-])c4c(O)c(cc(O)c4c3C2=O)NC(=O)/C(C)=C\C=C\[C@H](C)[C@H](O)[C@@H](C)[C@@H](O)[C@@H](C)[C@H](OC(C)=O)[C@@H]1C.[Na+] [Rifamycin SV] |  |  |  | Residual viable cells (Microscopy) [2]: 60%
COc1ccc(C[C@H]2NC[C@H](O)[C@H]2OC(C)=O)cc1 [Anisomycin] |  |  |  | Residual viable cells (SYBR/PI) [1, 6]: 68%
CCN(CC)CCNc1ccc(CO)c2sc3ccccc3c(=O)c12 [Hycanthone] | 45% | 45% |  | 
NC[C@@H]1CC[C@@H](N)[C@@H](O[C@H]2[C@H](O)[C@@H](O[C@H]3O[C@H](CO)[C@@H](O)[C@H](N)[C@H]3O)[C@H](N)C[C@@H]2N)O1 [Dibekacin] |  | 70% |  | 
CCC[S+]([O-])c1ccc2[nH]c(NC(=O)OC)nc2c1 (centres unmarked) [Ricobendazole (Albendazole oxide), Albendazole oxide] |  |  |  | viability at 50 µM [1, 9]: 57%
Nc1ccn([C@@H]2CS[C@H](CO)O2)c(=O)n1 [Lamivudine] | 58% | 58% |  | 
NC12CC3CC(CC(C3)C1)C2 [Amantadine hydrochloride] |  | 65% |  | Residual viable cells (SYBR/PI) ([1]; Borrelia burgdorferi, 7 days, 50 μM): 69%
COC(=O)Nc1nc2cc(C(=O)c3ccc(F)cc3)ccc2[nH]1 [Flubendazole] | 54% | 54% |  | 

Source: patent publication US20190008848A1, “IDENTIFICATION OF ADDITIONAL ANTI-PERSISTER ACTIVITY AGAINST BORRELIA BURGDORFERI FROM AN FDA DRUG LIBRARY” (THE JOHNS HOPKINS UNIVERSITY, priority 2015, published 2019)
